Assay results as given in patent US20190062340A1, “CORTISTATIN ANALOGS” (PRESIDENT AND FELLOWS OF HARVARD COLLEGE, priority 2016, published 2019).
pIC50: −log10 of the molar value.

Key:
[1] = target: hERG (Homo sapiens, UniProt Q12809); assay: hERG activity; conditions: low hERG activity is defined as IC50>1 μM
[2] = test system: off-target enzymes and receptors; assay: Selectivity against off-target enzymes and receptors
[3] = Toxicity (weight loss) over 7 day dosing; format: in vivo; conditions: low toxicity, no significant weight loss
[4] = Tolerability of once-daily dosing in mice (weight loss); conditions: once-daily at a dose that fully inhibits CDK8 kinase activity in vivo, experiment terminated
[5] = test system: human umbilical vein endothelial cells (HUVECs); conditions: HUVEC proliferation; initial study of Aoki et al.; read-out: IC50, anti-proliferative activity against HUVECs; cited from earlier work

hERG, sequence (Q12809 whole entry): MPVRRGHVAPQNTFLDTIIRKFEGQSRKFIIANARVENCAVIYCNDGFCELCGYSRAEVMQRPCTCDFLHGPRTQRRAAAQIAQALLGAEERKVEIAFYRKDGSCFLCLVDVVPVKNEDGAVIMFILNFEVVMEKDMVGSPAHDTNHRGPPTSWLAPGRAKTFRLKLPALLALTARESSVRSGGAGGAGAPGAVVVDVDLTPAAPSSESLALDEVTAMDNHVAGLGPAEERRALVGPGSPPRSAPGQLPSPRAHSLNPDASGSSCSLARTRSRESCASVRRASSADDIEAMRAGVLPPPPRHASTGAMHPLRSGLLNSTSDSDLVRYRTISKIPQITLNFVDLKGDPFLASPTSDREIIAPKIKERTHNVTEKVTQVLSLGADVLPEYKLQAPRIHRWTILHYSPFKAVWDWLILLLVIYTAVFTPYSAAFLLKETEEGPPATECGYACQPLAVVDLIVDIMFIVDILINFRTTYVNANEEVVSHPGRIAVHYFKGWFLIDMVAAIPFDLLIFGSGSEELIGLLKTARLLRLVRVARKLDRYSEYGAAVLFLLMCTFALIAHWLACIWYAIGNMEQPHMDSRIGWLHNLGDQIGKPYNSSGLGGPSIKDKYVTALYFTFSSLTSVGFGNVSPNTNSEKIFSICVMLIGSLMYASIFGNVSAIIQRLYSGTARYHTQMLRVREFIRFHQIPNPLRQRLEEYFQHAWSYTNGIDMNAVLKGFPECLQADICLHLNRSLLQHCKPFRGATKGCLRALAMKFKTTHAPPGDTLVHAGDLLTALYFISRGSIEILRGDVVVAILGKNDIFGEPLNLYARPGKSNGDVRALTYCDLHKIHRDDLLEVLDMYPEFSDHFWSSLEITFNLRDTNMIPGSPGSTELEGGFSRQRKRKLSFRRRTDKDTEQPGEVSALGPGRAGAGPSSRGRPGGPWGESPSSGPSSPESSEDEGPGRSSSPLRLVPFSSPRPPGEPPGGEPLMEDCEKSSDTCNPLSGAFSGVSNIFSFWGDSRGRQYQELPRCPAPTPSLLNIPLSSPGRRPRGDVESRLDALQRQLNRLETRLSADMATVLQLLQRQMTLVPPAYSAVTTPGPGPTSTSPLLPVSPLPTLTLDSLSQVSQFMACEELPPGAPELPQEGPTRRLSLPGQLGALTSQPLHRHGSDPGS

Molecule	pIC50 [1]	selectivity against off-target enzymes and receptors [2]	weight loss [3]	weight loss in the animal [4]	pIC50 [5]
C[C@]12CC=C3C=C4CC[C@@H](O)C[C@]45CC[C@]3(O5)[C@@H]1CC[C@@H]2c1ccc2ccncc2c1 [Compound A, (3S,3 aR,9R,10aR,12aS,12bR)-3-(isoquinolin-7-yl)-3a-methyl-1,2,3,3 a,4,7,8,9,10,11,12,12b-dodecahydro-10a,12a-epoxybenzo[4,5]cyclohepta[1,2-e]inden-9-ol]	< 6.00	high selectivity	< 15%	–	–
Cortistatin A	–	–	–	unacceptable weight loss	8.74
